Test results taken from patent publication US11236088B2, “Heterocyclic compounds and their application in medicine” (KIND PHARMACEUTICAL, priority 2017, dated 2022).

These molecules were tested on MCF-7 cells (assay: Inhibitory effect on the growth of MCF-7 cells (CellTiter-Glo, 10 days)). Conditions: Homo sapiens, MCF7, 240 h, 10 days incubation, CellTiter-Glo chemiluminescence.
Assay type: cell-based
Protocol: Assay 2: Inhibitory effect of compounds of the present invention on the growth of MCF-7 cells by a cell drug inhibition experiment
1. Experimental Materials
1) Reagents: DMEM high glucose medium (Lonza #12-604F), FBS (BI #04-00F1ACS), antibiotics (Thermofisher #15070063), bovine insulin (Western reagent #11070-73-8), trypsin (Thermofisher #25200-056), CellTiter-Glo reagent (Promega #G7571)
2) Instruments: American MD-M5 microplate reader 5;
2. Experimental Procedures:
1) 100 μl of MCF-7 cells was added to a medium in a white opaque 96-well plate at a density of 5000 cells/ml in which the medium is DMEM high-glucose medium supplemented with 10% FBS. The cells were cultured in a 5% CO2 cell incubator at 37° C. for 24 hours.
2) Different concentrations of corresponding compounds were added to the 96-well plate for incubating MCF-7 cells. The cells were incubated for 10 days in a 5% CO2 cell incubator.
3) To each well of MCF-7 cells, 100 μl of CellTiter-Glo reagent was added and then set aside at room temperature for 10 minutes. The chemiluminescence signal was read using an MD-M5 microplate reader, and the data was processed using GraphPad Prism to calculate IC50 value.
`CC(C)C[C@H]1[C@H](c2ccc(NC3CN(CCCF)C3)cc2)c2ccc3[nH]ncc3c2CN1C` [Example 1, 1-(3-fluoropropyl)-N-(4-((6R, 7S)-7-isobutyl-8-methyl-6,7,8,9-tetrahydro-3H-pyrazolo [3,4-h]isoquinolin-6-yl)phenyl)azetidin-3-amine] showed an IC50 of 1 to 10 nM. `CC(C)C[C@H]1[C@H](c2c(F)cc(NC3CN(CCCF)C3)cc2F)c2ccc3[nH]ncc3c2CN1C` [Example 2, N-(3,5-difluoro-4-((6S, 7S)-7-isobutyl-8-methyl-6,7,8,9-tetrahydro-3H-pyrazolo [3,4-h]isoquinolin-6-yl)phenyl)-1-(3-fluoropropyl) azetidin-3-amine] showed an IC50 of at most 1 nM. With `CC(C)C[C@H]1[C@H](c2c(F)cc(NC3CN(CC(F)CF)C3)cc2F)c2ccc3[nH]ncc3c2CN1C` (stereo partly drawn) [Example 3, N-(3,5-difluoro-4-((6S, 7S)-7-isobutyl-8-methyl-6,7,8,9-tetrahydro-3H-pyrazolo [3,4-h]isoquinolin-6-yl)phenyl)-1-(2,3-difluoropropyl) azetidin-3-amine] the IC50 was over 1000 nM. For `CC(C)C[C@H]1[C@H](c2c(F)cc(NC3CN(CCC(F)(F)F)C3)cc2F)c2ccc3[nH]ncc3c2CN1C` [Example 4, N-(3,5-difluoro-4-((6S, 7S)-7-isobutyl-8-methyl-6,7,8,9-tetrahydro-3H-pyrazolo [3,4-h]isoquinolin-6-yl)phenyl)-1-(3,3,3-trifluoropropyl) azetidin-3-amine], the IC50 was over 1000 nM. `CN1Cc2c(ccc3[nH]ncc23)[C@@H](c2c(F)cc(NC3CN(CCCF)C3)cc2F)[C@@H]1CC1CC1` [Example 5, N-(4-((6S, 7S)-7-cyclopropylmethyl-8-methyl-6,7,8,9-tetrahydro-3H-pyrazolo [3,4-h]isoquinolin-6-yl)-3,5-difluorophenyl)-1-(3-fluoropropyl) azetidin-3-amine] showed an IC50 of over 1000 nM. `CCCN1CC(Nc2cc(F)c([C@@H]3c4ccc5[nH]ncc5c4CN(C)[C@H]3CC(C)C)c(F)c2)C1` [Example 6, N-(3,5-difluoro-4-((6S, 7S)-7-isobutyl-8-methyl-6,7,8,9-tetrahydro-3H-pyrazolo [3,4-h]isoquinolin-6-yl)phenyl)-1-propylazetidin-3-amine] was tested, and the IC50 was over 1000 nM. `CCCCN1CC(Nc2cc(F)c([C@@H]3c4ccc5[nH]ncc5c4CN(C)[C@H]3CC(C)C)c(F)c2)C1` [Example 7, 1-butyl-N-(3,5-difluoro-4-((6S, 7S)-7-isobutyl-8-methyl-6,7,8,9-tetrahydro-3H-pyrazolo [3,4-h]isoquinolin-6-yl)phenyl) azetidin-3-amine] gave an IC50 of over 1000 nM. For `CC(C)C[C@H]1[C@H](c2c(F)cc(NC3CN(CC(C)C)C3)cc2F)c2ccc3[nH]ncc3c2CN1C` [Example 8, N-(3,5-difluoro-4-((6S, 7S)-7-isobutyl-8-methyl-6,7,8,9-tetrahydro-3H-pyrazolo [3,4-h]isoquinolin-6-yl)phenyl)-1-isobutylazetidin-3-amine], the IC50 was over 1000 nM. `CCCCCN1CC(Nc2cc(F)c([C@@H]3c4ccc5[nH]ncc5c4CN(C)[C@H]3CC(C)C)c(F)c2)C1` [Example 9, N-(3,5-difluoro-4-((6S, 7S)-7-isobutyl-8-methyl-6,7,8,9-tetrahydro-3H-pyrazolo [3,4-h]isoquinolin-6-yl)phenyl)-1-pentylazetidin-3-amine] showed an IC50 of over 1000 nM. With `CC(C)C[C@H]1[C@H](c2c(F)cc(SC3CN(CCCF)C3)cc2F)c2ccc3[nH]ncc3c2CN1C` [Example 10, (6S, 7S)-6-(2,6-difluoro-4-((1-(3-fluoropropyl)azetidin-3-yl)thio)phenyl)-7-isobutyl-8-methyl-6,7,8,9-tetrahydro-3H-pyrazolo [3,4-h]isoquinoline] the IC50 was at most 1 nM. In the case of `CCCN1CC(Sc2cc(F)c([C@@H]3c4ccc5[nH]ncc5c4CN(C)[C@H]3CC(C)C)c(F)c2)C1` [Example 11], the IC50 is reported as at most 1 nM. For `CCCCN1CC(Sc2cc(F)c([C@@H]3c4ccc5[nH]ncc5c4CN(C)[C@H]3CC(C)C)c(F)c2)C1` [Example 12, (6S, 7S)-6-(4-((1-butylazetidin-3-yl)thio)-2,6-difluorophenyl)-7-isobutyl-8-methyl-6,7,8,9-tetrahydro-3H-pyrazolo [3,4-h]isoquinoline], the IC50 was 10 to 1000 nM. `CC(C)C[C@H]1[C@H](c2c(F)cc(SC3CN(CC(C)C)C3)cc2F)c2ccc3[nH]ncc3c2CN1C` [Example 13, (6S, 7S)-6-(2,6-difluoro-4-((1-isobutylazetidin-3-yl)thio)phenyl)-7-isobutyl-8-methyl-6,7,8,9-tetrahydro-3H-pyrazolo [3,4-h]isoquinoline] gave an IC50 of 10 to 1000 nM. In the case of `CCCCCN1CC(Sc2cc(F)c([C@@H]3c4ccc5[nH]ncc5c4CN(C)[C@H]3CC(C)C)c(F)c2)C1` [Example 14, (6S, 7S)-6-(2,6-difluoro-4-((1-pentylazetidin-3-yl)thio)phenyl)-7-isobutyl-8-methyl-6,7,8,9-tetrahydro-3H-pyrazolo [3,4-h]isoquinoline], the IC50 is reported as over 1000 nM. In the case of `CC(C)C[C@H]1[C@H](c2c(F)cc(OC3CN(CCCF)C3)cc2F)c2ccc3[nH]ncc3c2CN1C` [Example 15, (6S, 7S)-6-(2,6-difluoro-4-((1-(3-fluoropropyl)azetidin-3-yl)oxy)phenyl)-7-isobutyl-8-methyl-6,7,8,9-tetrahydro-3H-pyrazolo [3,4-h]isoquinoline], the IC50 is reported as at most 1 nM. For `CCCN1CC(Oc2cc(F)c([C@@H]3c4ccc5[nH]ncc5c4CN(C)[C@H]3CC(C)C)c(F)c2)C1` [Example 16, (6S, 7S)-6-(2,6-difluoro-4-((1-propylazetidin-3-yl)oxy)phenyl)-7-isobutyl-8-methyl-6,7,8,9-tetrahydro-3H-pyrazolo [3,4-h]isoquinoline], the IC50 was at most 1 nM. `CC(C)C[C@H]1[C@H](c2c(F)cc(OC3CN(CC(C)C)C3)cc2F)c2ccc3[nH]ncc3c2CN1C` [Example 17, (6S, 7S)-6-(2,6-difluoro-4-((1-isobutylazetidin-3-yl)oxy)phenyl)-7-isobutyl-8-methyl-6,7,8,9-tetrahydro-3H-pyrazolo [3,4-h]isoquinoline] showed an IC50 of 1 to 10 nM. Molecule `CCCCN1CC(Oc2cc(F)c([C@@H]3c4ccc5[nH]ncc5c4CN(C)[C@H]3CC(C)C)c(F)c2)C1` [Example 18] has an IC50 of over 1000 nM. In the case of `CCCCCN1CC(Oc2cc(F)c([C@@H]3c4ccc5[nH]ncc5c4CN(C)[C@H]3CC(C)C)c(F)c2)C1` [Example 19], the IC50 is reported as over 1000 nM. With `CN1Cc2c(ccc3[nH]ncc23)[C@@H](c2c(F)cc(OC3CN(CCCF)C3)cc2F)[C@@H]1CC1CC1` [Example 20, (6S, 7S)-7-(cyclopropylmethyl)-6-(2,6-difluoro-4-((1-(3-fluoropropyl)azetidin-3-yl)oxy)phenyl)-8-methyl-6,7,8,9-tetrahydro-3H-pyrazolo [3,4-h]isoquinoline] the IC50 was over 1000 nM. `CCCN1CC(Oc2cc(F)c([C@@H]3c4ccc5[nH]ncc5c4CN(C)[C@H]3CC3CC3)c(F)c2)C1` [Example 21, (6S, 7S)-7-cyclopropylmethyl-6-(2,6-difluoro-4-((1-propylazetidin-3-yl)oxy)phenyl)-8-methyl-6,7,8,9-tetrahydro-3H-pyrazolo [3,4-h]isoquinoline] was tested, and the IC50 was over 1000 nM. Molecule `CC(C)CN1CC(Oc2cc(F)c([C@@H]3c4ccc5[nH]ncc5c4CN(C)[C@H]3CC3CC3)c(F)c2)C1` [Example 22, (6S, 7S)-7-cyclopropylmethyl-6-(2,6-difluoro-4-((1-isobutylazetidin-3-yl)oxy)phenyl)-8-methyl-6,7,8,9-tetrahydro-3H-pyrazolo [3,4-h]isoquinoline] has an IC50 of over 1000 nM. With `CCCCN1CC(Oc2cc(F)c([C@@H]3c4ccc5[nH]ncc5c4CN(C)[C@H]3CC3CC3)c(F)c2)C1` [Example 23, (6S, 7S)-6-(4-((1-butylazetidin-3-yl)oxy)-2,6-difluorophenyl)-7-cyclopropylmethyl-8-methyl-6,7,8,9-tetrahydro-3H-pyrazolo [3,4-h]isoquinoline] the IC50 was over 1000 nM. Molecule `CCCCCN1CC(Oc2cc(F)c([C@@H]3c4ccc5[nH]ncc5c4CN(C)[C@H]3CC3CC3)c(F)c2)C1` [Example 24, (6S, 7S)-7-cyclopropylmethyl-6-(2,6-difluoro-4-((1-pentylazetidin-3-yl)oxy)phenyl)-8-methyl-6,7,8,9-tetrahydro-3H-pyrazolo [3,4-h]isoquinoline] has an IC50 of over 1000 nM. For `CN1Cc2c(ccc3[nH]ncc23)[C@@H](c2c(F)cc(SC3CN(CCCF)C3)cc2F)[C@@H]1CC1CC1` [Example 25], the IC50 was 10 to 1000 nM. `CCCN1CC(Sc2cc(F)c([C@@H]3c4ccc5[nH]ncc5c4CN(C)[C@H]3CC3CC3)c(F)c2)C1` [Example 26, (6S, 7S)-7-cyclopropylmethyl-6-(2,6-difluoro-4-((1-propylazetidin-3-yl)thio)phenyl)-8-methyl-6,7,8,9-tetrahydro-3H-pyrazolo [3,4-h]isoquinoline] gave an IC50 of 10 to 1000 nM. Work on `CCCCN1CC(Sc2cc(F)c([C@@H]3c4ccc5[nH]ncc5c4CN(C)[C@H]3CC3CC3)c(F)c2)C1` [Example 27, (6S, 7S)-6-(4-((1-butylazetidin-3-yl)thio)-2,6-difluorophenyl)-7-cyclopropylmethyl-8-methyl-6,7,8,9-tetrahydro-3H-pyrazolo [3,4-h]isoquinoline] yielded an IC50 of over 1000 nM. Molecule `CC(C)CN1CC(Sc2cc(F)c([C@@H]3c4ccc5[nH]ncc5c4CN(C)[C@H]3CC3CC3)c(F)c2)C1` [Example 28, (6S, 7S)-6-(4-((1-isobutylazetidin-3-yl)thio)-2,6-difluorophenyl)-7-cyclopropylmethyl-8-methyl-6,7,8,9-tetrahydro-3H-pyrazolo [3,4-h]isoquinoline] has an IC50 of over 1000 nM.
